Experimental data from patent US20180370927A1, “MICROBIOCIDAL OXADIAZOLE DERIVATIVES” (SYNGENTA PARTICIPATIONS AG, priority 2015, published 2018).

Assays:
[1] = test system: Glomerella lacenarium (Colletotrichum lacenarium); test: Glomerella lacenarium (Colletotrichum lacenarium) liquid culture / cucumber / preventative (anthracnose); assay type: cell-based; conditions: 20 ppm in the applied formulation, liquid culture in PDB, 24° C., 3 to 4 days after application, read-out: disease control (inhibition of growth, photometric) compared to untreated control
How it was run: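 Cryostored conidia in potato dextrose broth added to DMSO compound solution in microtiter plates, incubated at 24° C. Growth inhibition read photometrically 3 to 4 days after application, as percent control versus untreated check; compounds tested at 20 ppm.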

Phakopsora pachyrhizi = Phakopsora pachyrhizi / soybean / leaf disc preventative (Asian soybean rust); assay type: in vivo; conditions: foliar, 200 ppm in the applied formulation, soybean leaf disks, assessed 12 to 14 days after application, read-out: disease control compared to untreated control leaf disks
How it was run: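 Soybean leaf discs on water agar were sprayed with formulated compound diluted in water, then inoculated one day later with spore suspension on the lower leaf surface. Held 24-36 h dark at 20° C., 75% RH, then 12 h light/day; percent disease control versus untreated scored 12 to 14 days after application.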

[2] = test system: Puccinia recondita f. Sp. Tritici; test: Puccinia recondita f. sp. tritici / wheat / leaf disc preventative (brown rust); assay type: in vivo; conditions: foliar, 200 ppm in the applied formulation, wheat leaf segments, preventative, assessed 7 to 9 days after application, read-out: disease control compared to untreated control leaf disks
How it was run: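 Wheat cv. Kanzler leaf segments on agar sprayed with formulated compound in water, inoculated with rust spores 1 day later. Incubated at 19° C, 75% rh, 12 h light/12 h dark; percent disease control versus untreated scored 7 to 9 days after application; tested at 200 ppm.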

[3] = test system: Puccinia recondita f. Sp. Tritici; test: Puccinia recondita f. sp. tritici / wheat / leaf disc curative (brown rust); assay type: in vivo; conditions: foliar, 200 ppm in the applied formulation, wheat leaf segments, curative (applied 1 day after inoculation), assessed 6 to 8 days after application, read-out: disease control compared to untreated control leaf disks
How it was run: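 Wheat cv. Kanzler leaf segments on agar were inoculated with spores, kept dark at 19° C, 75% RH, then sprayed with diluted formulated compound 1 day after inoculation (curative). Incubation continued at 19° C, 75% RH, 12 h light/12 h dark, with percent disease control versus untreated scored 6 to 8 days after application.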

CO/N=C(\C)C(=O)N(Cc1ccc(-c2noc(C(F)(F)F)n2)cc1)OC [Compound 2.10, (2E)-N-methoxy-2-methoxyimino-N-[[4-[5-(trifluoromethyl)-1,2,4-oxadiazol-3-yl]phenyl]methyl] propanamide]
≥ 80%: inhibition at 20 ppm [1] | pest or weed control at 200 ppm (Phakopsora pachyrhizi) | pest or weed control at 200 ppm [2] | pest or weed control at 200 ppm [3]

CCN(Cc1ccc(-c2noc(C(F)(F)F)n2)cc1)C(=O)C(=O)N(C)OC [Compound 4.106, N′-ethyl-N-methoxy-N-methyl-N′-[[4-[5-(trifluoromethyl)-1,2,4-oxadiazol-3-yl]phenyl]methyl] oxamide]
≥ 80%: inhibition at 20 ppm [1] | pest or weed control at 200 ppm (Phakopsora pachyrhizi) | pest or weed control at 200 ppm [2] | pest or weed control at 200 ppm [3]

CON(Cc1ccc(-c2noc(C(F)(F)F)n2)cc1)C(=O)C(C)=O [Compound 1.36, N-methoxy-2-oxo-N-[[4-[5-(trifluoromethyl)-1,2,4-oxadiazol-3-yl]phenyl]methyl]propanamide]
≥ 80%: inhibition at 20 ppm [1] | pest or weed control at 200 ppm (Phakopsora pachyrhizi) | pest or weed control at 200 ppm [2] | pest or weed control at 200 ppm [3]

CCN(CC)C(=O)C(=O)NCc1ccc(-c2noc(C(F)(F)F)n2)cc1 [Compound 4.52, N′,N′-diethyl-N-[[4-[5-(trifluoromethyl)-1,2,4-oxadiazol-3-yl]phenyl]methyl] oxamide]
≥ 80%: inhibition at 20 ppm [1] | pest or weed control at 200 ppm (Phakopsora pachyrhizi) | pest or weed control at 200 ppm [2] | pest or weed control at 200 ppm [3]

CNC(=O)C(=O)NCc1ccc(-c2noc(C(F)(F)F)n2)cc1 [Compound 4.47, N-methyl-N′-[[4-[5-(trifluoromethyl)-1,2,4-oxadiazol-3-yl]phenyl]methyl] oxamide]
≥ 80%: inhibition at 20 ppm [1] | pest or weed control at 200 ppm (Phakopsora pachyrhizi) | pest or weed control at 200 ppm [2] | pest or weed control at 200 ppm [3]

CCCN(Cc1ccc(-c2noc(C(F)(F)F)n2)cc1)C(=O)C(N)=O [Compound 4.88, N′-propyl-N′-[[4-[5-(trifluoromethyl)-1,2,4-oxadiazol-3-yl]phenyl]methyl] oxamide]
≥ 80%: inhibition at 20 ppm [1] | pest or weed control at 200 ppm (Phakopsora pachyrhizi) | pest or weed control at 200 ppm [2] | pest or weed control at 200 ppm [3]

CC(C)(C)C(=O)C(=O)NCc1ccc(-c2noc(C(F)(F)F)n2)cc1 [Compound 1.52, 3,3-dimethyl-2-oxo-N-[[4-[5-(trifluoromethyl)-1,2,4-oxadiazol-3-yl]phenyl]methyl]butanamide]
≥ 80%: inhibition at 20 ppm [1] | pest or weed control at 200 ppm (Phakopsora pachyrhizi) | pest or weed control at 200 ppm [2] | pest or weed control at 200 ppm [3]

CCC(=O)C(=O)N(CCO)Cc1ccc(-c2noc(C(F)(F)F)n2)cc1 [Compound 1.33, N-(2-hydroxyethyl)-2-oxo-N-[[4-[5-(trifluoromethyl)-1,2,4-oxadiazol-3-yl]phenyl]methyl]butanamide]
≥ 80%: inhibition at 20 ppm [1] | pest or weed control at 200 ppm (Phakopsora pachyrhizi) | pest or weed control at 200 ppm [2] | pest or weed control at 200 ppm [3]

O=C(NCc1ccc(-c2noc(C(F)(F)F)n2)cc1)C(=O)c1ccccc1 [Compound 1.75, 2-oxo-2-phenyl-N-[[4-[5-(trifluoromethyl)-1,2,4-oxadiazol-3-yl]phenyl]methyl]acetamide]
≥ 80%: inhibition at 20 ppm [1] | pest or weed control at 200 ppm (Phakopsora pachyrhizi) | pest or weed control at 200 ppm [2] | pest or weed control at 200 ppm [3]

O=C(NCc1ccc(-c2noc(C(F)(F)F)n2)cc1F)C(=O)c1ccccc1 [Compound 1.37, N-[[2-fluoro-4-[5-(trifluoromethyl)-1,2,4-oxadiazol-3-yl]phenyl]methyl]-2-oxo-2-phenyl-acetamide]
≥ 80%: inhibition at 20 ppm [1] | pest or weed control at 200 ppm (Phakopsora pachyrhizi) | pest or weed control at 200 ppm [2] | pest or weed control at 200 ppm [3]

CN(C)C(=O)C(=O)NCc1ccc(-c2noc(C(F)(F)F)n2)c(F)c1 [Compound 4.93, N-[[3-fluoro-4-[5-(trifluoromethyl)-1,2,4-oxadiazol-3-yl]phenyl]methyl]-N',N'-dimethyl-oxamide]
≥ 80%: inhibition at 20 ppm [1] | pest or weed control at 200 ppm (Phakopsora pachyrhizi) | pest or weed control at 200 ppm [2] | pest or weed control at 200 ppm [3]

CC(=O)C(=O)N(Cc1ccc(-c2noc(C(F)(F)F)n2)cc1)C1CC1 [Compound 1.91, N-cyclopropyl-2-oxo-N-[[4-[5-(trifluoromethyl)-1,2,4-oxadiazol-3-yl]phenyl]methyl]propanamide]
≥ 80%: inhibition at 20 ppm [1] | pest or weed control at 200 ppm (Phakopsora pachyrhizi) | pest or weed control at 200 ppm [2] | pest or weed control at 200 ppm [3]

O=C(NCc1c(F)cc(-c2noc(C(F)(F)F)n2)cc1F)C(=O)c1ccco1 [Compound 1.88, N-[[2,6-difluoro-4-[5-(trifluoromethyl)-1,2,4-oxadiazol-3-yl]phenyl]methyl]-2-(2-furyl)-2-oxo-acetamide]
≥ 80%: inhibition at 20 ppm [1] | pest or weed control at 200 ppm (Phakopsora pachyrhizi) | pest or weed control at 200 ppm [2] | pest or weed control at 200 ppm [3]

CN(C)C(=O)C(=O)NCc1ccc(-c2noc(C(F)(F)F)n2)c(F)c1F [Compound 4.94, N-[[2,3-difluoro-4-[5-(trifluoromethyl)-1,2,4-oxadiazol-3-yl]phenyl]methyl]-N',N'-dimethyl-oxamide]
≥ 80%: inhibition at 20 ppm [1] | pest or weed control at 200 ppm (Phakopsora pachyrhizi) | pest or weed control at 200 ppm [2] | pest or weed control at 200 ppm [3]

CCON(Cc1ccc(-c2noc(C(F)(F)F)n2)cc1)C(=O)C(=O)CC [Compound 1.29, N-ethoxy-2-oxo-N-[[4-[5-(trifluoromethyl)-1,2,4-oxadiazol-3-yl]phenyl]methyl]butanamide]
≥ 80%: inhibition at 20 ppm [1] | pest or weed control at 200 ppm (Phakopsora pachyrhizi) | pest or weed control at 200 ppm [2] | pest or weed control at 200 ppm [3]

CCN(Cc1ccc(-c2noc(C(F)(F)F)n2)cc1)C(=O)C(=O)C(C)C [Compound 1.96, N-ethyl-3-methyl-2-oxo-N-[[4-[5-(trifluoromethyl)-1,2,4-oxadiazol-3-yl]phenyl]methyl]butanamide]
≥ 80%: inhibition at 20 ppm [1] | pest or weed control at 200 ppm (Phakopsora pachyrhizi) | pest or weed control at 200 ppm [2] | pest or weed control at 200 ppm [3]

CO/N=C(/C)C(=O)N(Cc1ccc(-c2noc(C(F)(F)F)n2)cc1)OC [Compound 2.11, (2Z)-N-methoxy-2-methoxyimino-N-[[4-[5-(trifluoromethyl)-1,2,4-oxadiazol-3-yl]phenyl]methyl] propanamide]
≥ 80%: inhibition at 20 ppm [1] | pest or weed control at 200 ppm (Phakopsora pachyrhizi) | pest or weed control at 200 ppm [2] | pest or weed control at 200 ppm [3]

COCCN(Cc1ccc(-c2noc(C(F)(F)F)n2)cc1)C(=O)C(C)=O [Compound 1.10, N-(2-methoxyethyl)-2-oxo-N-[[4-[5-(trifluoromethyl)-1,2,4-oxadiazol-3-yl]phenyl]methyl]propanamide]
≥ 80%: inhibition at 20 ppm [1] | pest or weed control at 200 ppm (Phakopsora pachyrhizi) | pest or weed control at 200 ppm [2] | pest or weed control at 200 ppm [3]

CC(C)CC(=O)C(=O)NCc1ccc(-c2noc(C(F)(F)F)n2)cc1 [Compound 1.50, 4-methyl-2-oxo-N-[[4-[5-(trifluoromethyl)-1,2,4-oxadiazol-3-yl]phenyl]methyl]pentanamide]
≥ 80%: inhibition at 20 ppm [1] | pest or weed control at 200 ppm (Phakopsora pachyrhizi) | pest or weed control at 200 ppm [2] | pest or weed control at 200 ppm [3]

CCONC(=O)C(=O)NCc1ccc(-c2noc(C(F)(F)F)n2)cc1 [Compound 4.55, N′-ethoxy-N-[[4-[5-(trifluoromethyl)-1,2,4-oxadiazol-3-yl]phenyl]methyl] oxamide]
≥ 80%: inhibition at 20 ppm [1] | pest or weed control at 200 ppm (Phakopsora pachyrhizi) | pest or weed control at 200 ppm [2] | pest or weed control at 200 ppm [3]

O=C(NCc1ccc(-c2noc(C(F)(F)F)n2)cc1)C(=O)c1cccs1 [Compound 1.51, 2-oxo-2-(2-thienyl)-N-[[4-[5-(trifluoromethyl)-1,2,4-oxadiazol-3-yl]phenyl]methyl]acetamide]
≥ 80%: inhibition at 20 ppm [1] | pest or weed control at 200 ppm (Phakopsora pachyrhizi) | pest or weed control at 200 ppm [2] | pest or weed control at 200 ppm [3]

CC(=O)C(=O)NCc1c(F)cc(-c2noc(C(F)(F)F)n2)cc1F [Compound 1.87, N-[[2,6-difluoro-4-[5-(trifluoromethyl)-1,2,4-oxadiazol-3-yl]phenyl]methyl]-2-oxo-propanamide]
≥ 80%: inhibition at 20 ppm [1] | pest or weed control at 200 ppm (Phakopsora pachyrhizi) | pest or weed control at 200 ppm [2] | pest or weed control at 200 ppm [3]

CCCC(=O)C(=O)N(Cc1ccc(-c2noc(C(F)(F)F)n2)cc1)OC [Compound 1.3, N-methoxy-2-oxo-N-[[4-[5-(trifluoromethyl)-1,2,4-oxadiazol-3-yl]phenyl]methyl]pentanamide]
≥ 80%: inhibition at 20 ppm [1] | pest or weed control at 200 ppm (Phakopsora pachyrhizi) | pest or weed control at 200 ppm [2] | pest or weed control at 200 ppm [3]
